Molecules are shown by their SMILES.

The data set can be described thus: oral administration: blood concentration of the citrate salt vs free base Compound 1. Conditions: administered orally. Type of data set: in vivo.

In the case of `Cc1cccc(C)c1CNc1cc(C(=O)N2CCC2)cn2c(C)c(C)nc12.O=C(O)CC(O)(CC(=O)O)C(=O)O` [citrate salt of Compound 1, azetidin-1-yl{8-[(2,6-dimethylbenzyl)amino]-2,3-dimethylimidazo[1,2-a]pyridin-6-yl}methanone citrate salt], the “AUC compared to the free base Compound 1” value is recorded as “at least 5 fold”, the “Cmax compared to the free base Compound 1” value is “at least 11 fold” and the “time to reach peak blood concentrations compared to the free base Compound 1” value is given as “faster”.
